The target of assay [1] is T1, ATP-binding cassette sub-family C member 4 (Homo sapiens, UniProt O15439).
T1 sequence (O15439 whole entry): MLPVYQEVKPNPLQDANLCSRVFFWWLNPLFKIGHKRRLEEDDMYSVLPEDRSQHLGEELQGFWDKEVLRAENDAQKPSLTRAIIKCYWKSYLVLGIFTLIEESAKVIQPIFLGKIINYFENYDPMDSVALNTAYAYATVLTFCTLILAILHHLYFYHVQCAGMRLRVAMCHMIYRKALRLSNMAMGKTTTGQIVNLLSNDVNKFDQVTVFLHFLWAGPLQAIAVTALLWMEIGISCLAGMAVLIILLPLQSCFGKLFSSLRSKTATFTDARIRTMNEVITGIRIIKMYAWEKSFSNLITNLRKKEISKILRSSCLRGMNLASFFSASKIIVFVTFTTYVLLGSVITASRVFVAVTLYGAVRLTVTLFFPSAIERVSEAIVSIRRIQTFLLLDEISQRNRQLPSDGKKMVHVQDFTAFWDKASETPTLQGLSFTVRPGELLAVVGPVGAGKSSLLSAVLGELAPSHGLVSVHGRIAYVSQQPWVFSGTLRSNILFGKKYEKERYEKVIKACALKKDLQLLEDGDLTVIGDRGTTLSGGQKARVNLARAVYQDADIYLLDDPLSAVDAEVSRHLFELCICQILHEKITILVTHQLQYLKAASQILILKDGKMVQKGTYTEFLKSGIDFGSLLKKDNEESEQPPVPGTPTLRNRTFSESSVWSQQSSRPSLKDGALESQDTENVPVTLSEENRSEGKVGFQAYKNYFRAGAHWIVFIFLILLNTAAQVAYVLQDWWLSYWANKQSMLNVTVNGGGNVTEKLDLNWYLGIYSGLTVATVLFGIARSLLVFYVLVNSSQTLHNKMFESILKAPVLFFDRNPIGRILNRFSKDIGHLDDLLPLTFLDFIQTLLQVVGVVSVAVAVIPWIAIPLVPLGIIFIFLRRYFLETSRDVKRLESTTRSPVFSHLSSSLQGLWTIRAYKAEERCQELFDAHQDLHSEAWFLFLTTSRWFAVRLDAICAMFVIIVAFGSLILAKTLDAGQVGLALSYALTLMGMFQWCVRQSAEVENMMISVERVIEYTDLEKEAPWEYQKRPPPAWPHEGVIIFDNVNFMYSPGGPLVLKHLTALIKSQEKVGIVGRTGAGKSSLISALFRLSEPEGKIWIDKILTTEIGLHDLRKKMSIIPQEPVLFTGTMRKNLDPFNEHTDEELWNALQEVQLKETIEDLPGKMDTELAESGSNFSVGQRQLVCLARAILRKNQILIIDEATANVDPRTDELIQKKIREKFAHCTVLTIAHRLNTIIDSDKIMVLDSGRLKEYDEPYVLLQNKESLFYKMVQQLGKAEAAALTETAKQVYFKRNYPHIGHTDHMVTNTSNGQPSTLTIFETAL
Briefly: TP_TRANSPORTER: inhibition of E217betaG uptake in membrane vesicles from MRP4-expressing HEK-293 cells. In kind it is functional, cell membranes, HEK293, Membrane vesicle.

The target of assay [2] is T1, ATP-binding cassette sub-family C member 4. Put plainly: TP_TRANSPORTER: inhibition of E217betaG uptake in membrane vesicles from MRP4-expressing Sf9 cells. In kind it is functional, cell membranes, Membrane vesicle.
The target is the same in assay [3]. Put plainly: TP_TRANSPORTER: inhibition of DHEAS in membrane vesicles from MRP4-expressing Sf9 cells. The assay is classed as functional, cell membranes, Membrane vesicle.

Each structure is given as a SMILES string.

Turning to `C[C@H](CCC(=O)NCC(=O)O)[C@H]1CC[C@H]2[C@@H]3CC[C@@H]4C[C@H](OS(=O)(=O)O)CC[C@]4(C)[C@H]3CC[C@]12C`, in assay [1], the IC50 (usually the point on the concentration scale where inhibition reaches its midpoint) stood at 10 µM.

Regarding `C[C@]12CC[C@@H]3c4ccc(O[C@@H]5O[C@H](C(=O)O)[C@@H](O)[C@H](O)[C@H]5O)cc4CC[C@H]3[C@@H]1CC[C@@H]2O`, the half-maximal inhibitory concentration (IC50) in assay [2] is 120 µM; in assay [3], 80 µM. `C[C@H](CCC(=O)NCCS(=O)(=O)O)C1CC[C@H]2[C@@H]3CC[C@@H]4C[C@H](OS(=O)(=O)O)CC[C@]4(C)[C@H]3CC[C@]12C` (stereo partly drawn) yielded an IC50 in assay [1] of 10 µM.

With `C[C@]12CC[C@H](O[C@@H]3O[C@H](C(=O)O)[C@@H](O)[C@H](O)[C@H]3O)CC1=CC[C@@H]1[C@@H]2CC[C@]2(C)C(=O)CC[C@@H]12`, the IC50 in assay [2] and in assay [3] was 80 µM in each case. With `C[C@H](CCC(=O)O)[C@H]1CC[C@H]2[C@@H]3CC[C@@H]4C[C@H](OS(=O)(=O)O)CC[C@]4(C)[C@H]3CC[C@]12C`, the IC50 in assay [1] was determined as 10 µM.

`C[C@]12CC[C@@H]3c4ccc(OS(=O)(=O)O)cc4CC[C@H]3[C@@H]1CC[C@H]2O`: the IC50 in assay [2] is 50 µM; in assay [3], 70 µM. `C[C@]12CC[C@@H]3c4ccc(O)cc4CC[C@H]3[C@@H]1CC[C@@H]2O[C@@H]1O[C@H](C(=O)O)[C@@H](O)[C@H](O)[C@H]1O` [ESTRADIOL 17B GLUCURONIDE] displayed an IC50 in assay [3] of 30 µM. That is a double-digit micromolar value. Take `C[C@]12CC[C@@H]3c4ccc(OS(=O)(=O)O)cc4CC[C@H]3[C@@H]1CC[C@@H]2OS(=O)(=O)O` [ESTRADIOL DISULFATE]: the IC50 in assay [2] amounted to 2 µM; in assay [3], 0.2 µM. In the case of `C[C@]12CC[C@@H]3c4ccc(OS(=O)(=O)O)cc4CC[C@H]3[C@@H]1CCC2=O` [ESTRONE SULFURIC ACID], the figures for the half-inhibitory concentration (IC50) in assay [2] and in assay [3] were 45 µM and 95 µM, respectively.

In the case of `C[C@H](CCC(=O)NCC(=O)O)[C@H]1CC[C@H]2[C@@H]3[C@H](O)C[C@@H]4C[C@H](O)CC[C@]4(C)[C@H]3C[C@H](O)[C@]12C` [GLYCOCHOLIC ACID], the half-maximal inhibitory concentration (IC50) in assay [1] was determined as 400 µM.

Take `C[C@H](CCC(=O)NCCS(=O)(=O)O)[C@H]1CC[C@H]2[C@@H]3[C@H](O)C[C@@H]4C[C@H](O)CC[C@]4(C)[C@H]3CC[C@]12C` [TAUROCHENODEOXYCHOLATE]: the half-inhibitory concentration (IC50) in assay [1] was found to be 55 µM.

`C[C@H](CCC(=O)NCCS(=O)(=O)O)[C@H]1CC[C@H]2[C@@H]3CC[C@@H]4C[C@H](O)CC[C@]4(C)[C@H]3C[C@H](O)[C@]12C` [TAURODEOXYCHOLIC ACID] showed an IC50 in assay [1] of 60 µM. With `C[C@H](CCC(=O)NCCS(=O)(=O)O)[C@H]1CC[C@H]2[C@@H]3CC[C@@H]4C[C@H](O)CC[C@]4(C)[C@H]3CC[C@]12C` [TAUROLITHOCHOLIC ACID], the half-maximal inhibitory concentration (IC50) in assay [1] amounted to 20 µM.

Values taken from ChEMBL document CHEMBL2073753, “Steroid and bile acid conjugates are substrates of human multidrug-resistance protein (MRP) 4 (ATP-binding cassette C4)” (Biochem J, 2003).
